According to US11931335B2, “Enhancing autophagy or increasing longevity by administration of urolithins or precursors thereof” (Amazentis SA, priority 2012, dated 2024):
“Also recorded” adds a separate entry of the source. Where two headings read alike, the source gives them in different places.

Columns and labels:
[1] = test system: C. elegans wild type (N2, Bristol); test: Mobility tracking of C. elegans during aging; format: in vivo; details: days 1, 3, 5 and 8 of adulthood; 50 μM; FIG. 12
Method: To examine the effect of urolithins on muscle activity during aging, C. elegans mobility was examined over time. Synchronized populations of wild-type nematodes were prepared by standard methods and cultivated at 20° C. on NGM agar containing E. Coli (OP50) with or without test compounds (ellagic acid (EA), urolithins A (UA), and B (UB)). At Day 0, five plates were prepared, each containing 10 young adult worms. Worms were assayed for mobility at different ages, day 1, 3, 5 and 8 of adulthood. The wild type (N2, Bristol) worm strain was employed for these studies.
For C. elegans movement tracking, 45 seconds of video were recorded using a Nikon DS-L2/DS-Fi1 camera and controller setup, attached to both a computer and a standard bright field microscope, tracking an entire plate of 10 worms, with 5 plates per condition. The movement of worms during this time was calculated using an adapted version of the freely-available software Parallel Worm Tracker for MATLAB. The total movement over the 45 second tracking was averaged across all worms for each condition. This experiment was repeated twice with between 40 and 70 worms per condition.

[2] = test system: C. elegans wild-type Bristol N2; test: Lifespan of wild-type C. elegans; format: in vivo; details: concentration of 50 µM; exposed from eggs; FIG. 4
Method: C. elegans strains were cultured at 20° C. on nematode growth media (NGM) agar plates seeded with E. coli strain OP50. Strain used was wild-type Bristol N2 provided by the Caenorhabditis Genetics Center (University of Minnesota). All Compounds were dissolved in DMSO. Animals were exposed to compounds from eggs on plates seeded with live OP50 bacteria. Control plates were prepared with the corresponding concentrations of DMSO (0.1%). For lifespan tests, worms were observed using a Nikon SMZ1500 stereomicroscope (Nikon, Melville, NY, USA). […] After 3 days (corresponding to day 0), newly developed 60 to 100 L4 worms were used per condition, scored and transferred to fresh plates every 3 days starting from day 1 (young adult worms). All lifespan experiments were performed at 20° C.
Lifespan assays were performed with (A) wild-type (N2), (B) sir-2.1(ok434) mutant, (C) aak-2(ok524), (D) daf-16(mu86), (E) eat-2(ad465) and (F) daf-2(e1370) mutant strains of C. elegans maintained during their full life on plates supplemented with either 50 μM of urolithin A or with a control treatment and seeded with OP50 bacteria. Control plates without urolithin A contained an equivalent concentration of DMSO. Worm lifespan assays were performed at 20° C.

[3] = test system: C. elegans wild-type Bristol N2; details: Genotype: N2, fed live E. coli (OP50), cited from earlier work
C. elegans [4] = test: Time-lapse motility of C. elegans; format: in vivo; details: 50 μM; days 8, 14 and 16; FIG. 13
Text: Briefly, worms were observed using a Nikon SMZ1500 stereomicroscope (Nikon, Melville, NY, USA). […] Experiments were repeated three times.

C. elegans [5] = test: Pharyngeal pumping in C. elegans; format: in vivo; details: day 14 (aged worms); 50 μM; FIG. 11
Method: To examine the effect of urolithins on muscle function, pharyngeal pumping was examined in C. elegans worms at day 7 and day 14. Worms were observed using a Nikon SMZ1500 stereomicroscope (Nikon, Melville, NY, USA). Ten L4 worms were transferred on plates containing NGM medium with vehicle (DMSO 0.1%, final concentration) or the compound of interest (urolithin A (UA), urolithin B (UB), urolithin C (UC), urolithin D (UD)) dissolved in DMSO (final concentration 50 μM) and seeded with E. coli RNAi clones as indicated. After 3 days (corresponding to day 0), newly developed 60 to 100 L4 worms were used per condition, scored and transferred to fresh plates every 3 days starting from day 1 (young adult worms). Experiments were performed at 20° C.
The pharyngeal pumping rates at day 7 and 14 were measured for 10 worms by transferring single worms to an unseeded plate and scoring for pharyngeal pumping under a dissecting microscope for 30 seconds. The pharyngeal pumping rates were then computed by extrapolating the pumping made by worms during this 30 second period.

[6] = test system: undifferentiated C2C12 mouse myoblasts; test: LC3B flow cytometry in C2C12 myoblasts; format: cell-based; details: 100 μM, 24 hrs, FIG. 26
Method: To determine the ability of urolithin A to induce autophagy in mouse muscle cells, undifferentiated C2C12 mouse myoblasts were seeded in T25 flasks and incubated overnight. Cells were incubated in 5% CO2 at 37° C. These cells were treated with one of the urolithins-urolithin A (UA), urolithin B (UB), urolithin C (UC) or urolithin D (UD)—dissolved in a 0.1% solution of DMSO for 24 hours. In one experiment UA, UB, UC and UD were dosed at a concentration of 100 μM for C2C12 myoblast treatment. In a separate study, C2C12 myoblasts were incubated at increasing concentrations of UA (10 μM, 50 μM and 100 μM). For each experiment a control culture was treated with 0.1% DMSO for the same period and served as the untreated control. In the final 30 minutes of incubation, lysosome degradation inhibitor was added to the culture. The cells were then washed with phosphate buffer solution and then treated with a 1% solution of trypsin enzyme to remove the adhesive cells from the cell culture dishes. The cells were then treated with EMD Millipore selective permeabilization reagent to permeabilize the cells so as to make the internal cellular proteins accessible to antibody treatment. Cells were then incubated with antibody to LC3B according to kit protocol (EMD Millipore FlowCellect™ Autophagy LC3 Antibody-based Assay Kit (Cat no. FCCH100171)). The cells were then washed and resuspended in the kit assay buffer. The resulting cells were then run through a flow cytometer and LC3B-FITC fluorescence was quantified to measure the level of LC3B in C2C12 cells for the various treatments. When cells undergo autophagy their intracellular levels of LC3-II increase which is detected by this method. This autophagy can be detected by fluorescent antibody labeling of LC3B, which can be measured quantitatively using flow cytometry. An increase in cellular autophagy is reflected by an increasing signal in the histogram of LC3B FITC.

Q: For O=c1oc2c(O)c(O)cc3c(=O)oc4c(O)c(O)cc1c4c23 [Ellagic acid, ellagic acid], which “age related mobility decline” value [1] is on record?
A: no effect

Q: What about the “effect on lifespan in C. elegans” value [2] of the same compound?
A: no effects

Q: Which “Mean Life Extension (%)” value ([3]; dose 50 μM) does the source give for CN(C)C(=N)NC(=N)N [Metformin, N,N-Dimethylimidodicarbonimidic diamide] here?
A: 27%

Q: Which “Mean Life Extension (%)” value ([3]; dose 100 μM) does the source give for CO[C@H]1C[C@@H]2CC[C@@H](C)[C@@](O)(O2)C(=O)C(=O)N2CCCC[C@H]2C(=O)O[C@H]([C@H](C)C[C@@H]2CC[C@@H](O)[C@H](OC)C2)CC(=O)[C@H](C)/C=C(\C)[C@@H](O)[C@@H](OC)C(=O)[C@H](C)C[C@H](C)/C=C/C=C/C=C/1C [Rapamycin, (3S,6R,7E,9R,10R,12R,14S,15E,17E,19E,21S,23S,26R,27R,34aS)-9,10,12,13,14,21,22,23,24,25,26,27,32,33,34,34a-hexadecahydro-9,27-dihydroxy-3-[(1R)-2-[(1S,3R,4R)-4-hydroxy-3-methoxycyclohexyl]-1-methylethyl]-10,21-dimethoxy-6,8,12,14,20,26-hexamethyl-23,27-epoxy-3H-pyrido[2,1-c][1, 4]-oxaazacyclohentriacontine-1,5,11,28,29(4H,6H,31H)-pentone] here?
A: 19%

Q: For Oc1ccc(/C=C/c2cc(O)cc(O)c2)cc1 [Resveratrol, 3,5,4′-trihydroxy-trans-stilbene], which “Mean Life Extension (%)” value ([3]; dose 100 μM) is on record?
A: 6.2-12.6%

Q: And the “Mean Life Extension (%)” value ([3]; dose 100 μM, listed as resveratrol)?
A: 12.6%

Q: Which “Mean Life Extension (%)” value ([3]; dose 200 μM) does the source give for NCCCCNCCCN [Spermidine, spermidine] here?
A: 15%

Q: Which results are given for O=c1oc2cc(O)ccc2c2ccccc12 [Urolithin B, urolithin B]?
A: age related mobility decline [1]: marked ability to reduce muscle function decline; effect on lifespan in C. elegans [2]: extended the lifespan; motility (time-lapse traces) (C. elegans [4]): strongest effect; pharyngeal pumping (muscle function) (C. elegans [5]): decreases the age related decline in muscle activity; LC3B signal (shift of the histogram) ([6]; listed as UB): increasing signal of LC3B; also recorded: increase in autophagy

Q: Which “effect on lifespan in C. elegans” value [2] does the source give for O=c1oc2cc(O)ccc2c2cc(O)c(O)cc12 [Urolithin C, urolithin C] here?
A: extended the lifespan

Q: What about the “LC3B signal (shift of the histogram)” value ([6]; listed as UC) of the same compound?
A: increasing signal of LC3B; also recorded: increase in autophagy

Q: With O=c1oc2c(O)c(O)ccc2c2cc(O)c(O)cc12 [Urolithin D, urolithin D] as the compound, how does the “effect on lifespan in C. elegans” value [2] read?
A: extended the lifespan

Q: And the “LC3B signal (shift of the histogram)” value ([6]; listed as UD)?
A: increasing signal of LC3B; also recorded: increase in autophagy
